# Reference: patent US6703536B2, “Disposable absorbent article having a skin care composition containing an enzyme inhibitor” (The Procter & Gamble Company, priority 1998, dated 2004)
# Structures can show the parent of a compound that is named as a salt. Where two headings read alike, the source gives them in different places. Square brackets hold non-standard residues; d marks the D form. Peptide text beside a SMILES is read from it. * marks the point of attachment. Sta = CC(C)C[C@H](N)[C@@H](O)CC(=O)O; Isovaleryl = CC(C)CC(=O)*
# Key:
# purified chymotrypsin = target: T1, purified chymotrypsin (Homo sapiens, UniProt P17538); test: Purified Chymotrypsin Activity (Purified Enzyme Method); format: biochemical
# T1 construct: purchased Sigma, St. Louis, Mo; C8946
# T1 sequence (P17538 19-263): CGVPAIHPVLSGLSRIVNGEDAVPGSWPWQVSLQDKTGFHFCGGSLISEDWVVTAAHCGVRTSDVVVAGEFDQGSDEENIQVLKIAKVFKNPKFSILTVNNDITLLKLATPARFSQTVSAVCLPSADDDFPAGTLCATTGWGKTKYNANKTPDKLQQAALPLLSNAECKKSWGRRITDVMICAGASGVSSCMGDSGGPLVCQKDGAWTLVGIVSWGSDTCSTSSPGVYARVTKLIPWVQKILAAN
# Experimental: The IC50 is calculated according to the equation IC50=[I]/[(v/vi)−1], where [I] is the inhibitor concentration tested, v is the rate of substrate cleavage in the absence of the inhibitor and vi is the rate of substrate cleavage in the presence of the inhibitor. As described further below, the IC50 of an enzyme inhibitor according to the invention may be measured by a Purified Enzyme method, by a Specific Fecal Enzyme method or by a General Fecal Enzymes method.
# Standard in vitro assays for enzyme activity, and inhibition of enzyme activity, are well known. The reagents used to conduct these tests are generally commercially available. In general, a simple system comprises an enzyme-specific substrate which, when hydrolyzed by the enzyme, produces a colored product. The activity of the enzyme is measured spectrophotometrically as the degree of development of the colored product (i.e., the rate of color change) over a predetermined time period. […] The following are exemplary methods that may be utilized to determine the inhibitory activity of enzyme inhibitors against A) purified enzymes known to exist in feces, B) specific enzyme activity in the feces itself and C) general enzyme activity in the feces itself. These methods are not intended to be limiting, however, as other methods, other substrates, other inhibitors and the like may be used to test activity against a wide variety of fecal enzymes, as known to one skilled in the art.
# For each of the following exemplary Purified Enzyme Methods, Specific Fecal Enzyme Methods, General Fecal Enzymes Method, Purified Lipase activity assay, Fecal Lipase activity assay, Purified Urease activity assay, Fecal Urease activity assay, Purified Amylase activity assay, and Fecal Amylase activity assay, the IC50 for each inhibitor tested may be calculated according to the following equation: […]
# where [I] is the inhibitor concentration tested, v is the rate of substrate cleavage in the absence of inhibitor and vi is the rate of substrate cleavage in the presence of inhibitor.
# In the methods, v and vi are measured as the change in absorbance (optical density, OD) at a given wavelength/time (e.g., minutes).
# The cuvette is incubated at 25° C. for 10 minutes. […] The same procedure is repeated without the putative inhibitor. […] The rates, vi and v, and the inhibitor concentration [I] are used to calculate IC50 according to the equation expressed above.
# LAP activity in feces = test: Fecal LAP Activity (Specific Fecal Enzyme Method); format: biochemical; conditions: pooled infant fecal suspension, pH 7.2, 25° C.; read-out: IC50 Specific Fecal Enzyme Methods LAP
# Excerpt: The following is a general description of a method for obtaining a sample of feces suitable for use in Fecal Protease Methods. However, one skilled in the art will be able to adapt the method to obtain appropriate samples of feces suitable for use in any of the Specific Fecal Protease Methods listed below (i.e., lipase, urease, and amylase) without undue experimentation.
# Pooled infant feces (at least five different samples) are collected in a manner to keep them free of urine and contamination and mixed with water to obtain a weight by weight (w/w) mixture (e.g., 1:50 w/w). This mixture is then mixed thoroughly to obtain a homogeneous suspension by homogenization or sonication. […] (Also, to ensure complete linearity the final absorbance should never exceed 1.5 OD405 units). If the activity of the pooled infant feces is outside this range, it is not possible to accurately determine IC50 values for putative protease inhibitors. However, the range of enzyme activity may be adjusted by increasing or decreasing the dilution factor accordingly for each enzyme. If this is not possible, a different group of subjects should be used to obtain the sample pool.
# To test the efficacy of protease inhibitors against LAP activity in feces, inhibitor and LAP buffer (50 mM sodium phosphate, pH 7.2) are added in a cuvette to obtain a final volume of 0.95 mL. To this mixture, 0.03 mL of substrate (6 mM L-Leucine-p-nitroanilide) is added to the cuvette. The cuvette is mixed by inversion and incubated at 25° C. for 5 minutes. A volume of 0.02 mL of fecal suspension is added to the cuvette, mixed and the absorbance at 405 nm minus the absorbance at 490 nm measured over 5 minutes at 25° C. The rate of substrate cleavage in the presence of inhibitor (vi) is the slope of a plot relating the excess absorbance (i.e., the absorbance at 405 nm minus the absorbance at 490 nm) versus time. The same procedure is repeated without the putative inhibitor. The rate of substrate cleavage in the absence of inhibitor (v) is the slope of a plot relating the excess absorbance versus time. The rates, vi and v, and the inhibitor concentration [I] are used to calculate IC50 according to the equation expressed above.
# [1] = purified chymotrypsin, N-Succ-Ala-Ala-Pro-Phe-p-nitroanilide, pH 7.6, 25° C., read-out: IC50 Purified Enzyme Methods Chymotryp.
Molecule,IC50 (purified chymotrypsin; [1]) [µM],IC50 (LAP activity in feces) [µM],IC50 (purified chymotrypsin) [µM]
CC1(C)[C@@H](O[C@H]2O[C@H](C(=O)O)[C@@H](O)[C@H](O)[C@H]2O[C@@H]2O[C@H](C(=O)O)[C@@H](O)[C@H](O)[C@H]2O)CC[C@]2(C)[C@H]3C(=O)C=C4[C@@H]5C[C@@](C)(C(=O)O)CC[C@]5(C)CC[C@@]4(C)[C@]3(C)CC[C@@H]12 [Glycyrrhizic Acid],> 500,> 300,–
"Cc1ccc(S(=O)(=O)N[C@@H](CCCCN)C(=O)CCl)cc1 [TLCK, L-1-chloro-3-[4-tosylamido]-7-amino-2-heptanone-HCl]",–,> 500,> 500
N=C(N)c1ccc(N)cc1 [p-Amino-benzamidine],> 500,> 500,–
N=C(N)c1ccc(OCCCCCCOc2ccc(C(=N)N)cc2)cc1 [Hexamidine diisethionate],> 1000,130,–
Aprotinin,1,> 20,–
CC(C)C[C@H](NC(=O)[C@@H](NC(=O)N[C@@H](Cc1ccccc1)C(=O)O)[C@@H]1CCN=C(N)N1)C(=O)N[C@H](C=O)Cc1ccccc1 [Chymostatin],–,> 500,< 0.12
CC(C)CC(=O)N[C@H](C(=O)N[C@H](C(=O)N[C@@H](CC(C)C)[C@@H](O)CC(=O)N[C@@H](C)C(=O)N[C@@H](CC(C)C)[C@@H](O)CC(=O)O)C(C)C)C(C)C [Pepstatin A] (Isovaleryl-VV[Sta]A[Sta]-OH),4.9,> 500,–
CC(=O)N[C@@H](CC(C)C)C(=O)N[C@@H](CC(C)C)C(=O)N[C@H](C=O)CCCNC(=N)N [Leupeptin],> 500,> 500,–
"Soybean trypsin inhibitor: plant-derived trypsin inhibitor (protein, UniProt P01070 25-205, looked up) Trypsin inhibitor A: DFVLDNEGNPLENGGTYYILSDITAFGGIRAAPTGNERCPLTVVQSRNELDKGIGTIISSPYRIRFIAEGHPLSLKFDSFAVIMLCVGIPTEWSVVEDLPEGPAVKIGENKDAMDGWFRLERVSDDEFNNYKLVFCPQQAEDDKCGDIGISIDHDDGTRRLVVSKNKPLVVQFQKLDKESL",0.026,> 20,–
